Several values for one entry are separate records, joined by “and”; a condition that tells them apart may be missing. Equal entries are not always repeated.
What was measured:
[1] = assay type: physicochemical

Row | Molecule | % Separation 1 h (C = cream) [1] | % Separation 24 h (C = cream) ([1]; 24 h) | Anionic 1 h, emulsion stability, mL separation [mL] | Anionic 24 h, emulsion stability, mL separation [mL] | % Separation 24 h (O = oil separated) ([1]; 24 h) | Adjuvant 1 h, emulsion stability, mL separation [mL] | Adjuvant 24 h, emulsion stability, mL separation [mL] | Nonionic 1 h, emulsion stability, mL separation [mL] | Nonionic 24 h, emulsion stability, mL separation [mL]
1 | CCCC(CCCCCCCC(=O)NCCCN(C)C)S(=O)(=O)[O-].[Na+] (centres unmarked) [Sample C12-42, C12 DMAPA Sulfonate] | 3 C % | 3.1 C % and 3.3 C % |  |  |  |  |  |  | 
2 | CN(C)CCCNC(=O)CCCCCCC/C=C/CCCCCCCC(=O)NCCCN(C)C [Mix-26, C18 DiDMAPA Amide] |  |  | 0 | 0 |  |  |  |  | 
3 | CCCCCCCC(CCCCCCCC(=O)NCCCN(C)C)S(=O)(=O)[O-].[Na+] (centres unmarked) [Sample C16-11, C16-DMAPA Sulfonate] | 3.1 C % and 2.8 C % | 4 C % and 3.6 C % |  |  |  |  |  |  | 
4 | C[N+](C)([O-])CCCNC(=O)CCCCCCCCC(CCCCCCCC(=O)NCCC[N+](C)(C)[O-])S(=O)(=O)[O-].[Na+] (centres unmarked) [Sample C18-30, C18 DiDMAPA DiAO Sulfonate] | 3.9 C % and 3.1 C % | 3.5 C, 0.5 O % and 3.6 C % | 0 | 0 | 3.5 C, 0.5 O % | 0 | 0 |  | 
5 | CCCC(CCCCCCCC(=O)NCCC[N+](C)(C)[O-])S(=O)(=O)[O-].[Na+] (centres unmarked) [Sample C12-21, C12 DMAPA AO Sulfonate] |  |  | 0 | 0 |  | 0 | 0 |  | 
6 | C=CCCCCCCCC(=O)NCCC[N+](C)(C)[O-] [Sample C10-20, C10 DMAPA AO] |  |  | 0 | 0 |  | 0 | 0 | 1 | 1
7 | C[N+](C)([O-])CCCNC(=O)CCCCCCC/C=C/CCCCCCCC(=O)NCCC[N+](C)(C)[O-] [Mix-29, C18 DiDMAPA DiAO] |  |  | 0 | 0 |  | 0 | 0 | 0 | 
8 | C16 DMAPA Sulfonate AO [Sample C16-12] |  |  | 0 | 0 |  | 0 | 0 | 0.4 | 0.5
9 | CN(C)CCCNC(=O)CCCCCCCCC(CCCCCCCC(=O)NCCCN(C)C)S(=O)(=O)[O-].[Na+] (centres unmarked) [Sample C18-68, C18 diDMAPA Amide Sulfonate] |  |  | 0 | 0 |  | 0 | 0 |  | 

Source: patent publication US9493727B2 (priority 2010, dated 2016)
